Experiments:
windgrass [1] = experiment: Test Example 4: herbicidal effect by soil treatment (Table 19, symbol L); format: in vivo, windgrass (Apera spica-venti); conditions: amount of applied herbicide 320 g/ha
Method in brief: (§1)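 Applied as a water-diluted emulsion, the compound was sprayed onto soil covering newly sown seeds. Evaluation came three weeks after application, in a greenhouse held at 25° C. to 30° C.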

false cleavers = experiment: Test Example 4: herbicidal effect by soil treatment (Table 19, symbol Q); format: in vivo, false cleavers (Galium spurium); conditions: amount of applied herbicide 320 g/ha
Method in brief: as §1

persian speedwell [2] = experiment: Test Example 5: herbicidal effect by foliage application, plastic box (Table 20, symbol R); format: in vivo, Persian speedwell (Veronica persica); conditions: foliage application, AAH 320 g/ha, three weeks after application
Method in brief: (§2)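 Sow seeds spot-wise in sterilized diluvial soil; cover with ~1.5 cm soil. Grow 14 days in greenhouse, 25° C. to 30° C. Spray foliage with emulsion diluted to predetermined amount. Rate effect after 3 weeks.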

lambsquarters [3] = experiment: Test Example 4: herbicidal effect by soil treatment (Table 19, symbol O); format: in vivo, lambsquarters (Chenopodium album); conditions: amount of applied herbicide 320 g/ha
Method in brief: as §1

green foxtail [4] = experiment: Test Example 5: herbicidal effect by foliage application, plastic box (Table 20, symbol G); format: in vivo, green foxtail (Setaria viridis); conditions: foliage application, AAH 320 g/ha, three weeks after application
Method in brief: as §2

wild oat [5] = experiment: Test Example 5: herbicidal effect by foliage application, plastic box (Table 20, symbol I); format: in vivo, wild oat (Avena fatua); conditions: foliage application, AAH 320 g/ha, three weeks after application
Method in brief: as §2

redroot pigweed [6] = experiment: Test Example 5: herbicidal effect by foliage application, plastic box (Table 20, symbol N); format: in vivo, redroot pigweed (Amaranthus retroflexus); conditions: foliage application, AAH 320 g/ha, three weeks after application
Method in brief: as §2

rice flat sedge = experiment: Test Example 3: herbicidal effect by foliage application, Wagner pot (Table 18, symbol E); format: in vivo, rice flat sedge (Cyperus iria); conditions: 320 g/ha
Method in brief: (§3)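 Plants were sown in alluvial soil held under 0.1–0.5 cm standing water and grown 14 days in a greenhouse at 25–30 °C. An emulsifiable formulation, water-diluted to the set dose, was then sprayed onto the foliage, and effects were scored three weeks later using previously defined criteria.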

green foxtail [7] = experiment: Test Example 4: herbicidal effect by soil treatment (Table 19, symbol G); format: in vivo, green foxtail (Setaria viridis); conditions: amount of applied herbicide 320 g/ha
Method in brief: as §1

Italian ryegrass [8] = experiment: Test Example 4: herbicidal effect by soil treatment (Table 19, symbol K); format: in vivo, Italian ryegrass (Lolium multiflorum); conditions: amount of applied herbicide 320 g/ha
Method in brief: as §1

velvetleaf [9] = experiment: Test Example 4: herbicidal effect by soil treatment (Table 19, symbol M); format: in vivo, velvetleaf (Abutilon theophrasti); conditions: amount of applied herbicide 320 g/ha
Method in brief: as §1

chickweed [10] = experiment: Test Example 5: herbicidal effect by foliage application, plastic box (Table 20, symbol P); format: in vivo, common chickweed (Stellaria media); conditions: foliage application, AAH 320 g/ha, three weeks after application
Method in brief: as §2

southern crabgrass [11] = experiment: Test Example 5: herbicidal effect by foliage application, plastic box (Table 20, symbol F); format: in vivo, southern crabgrass (Digitaria ciliaris); conditions: foliage application, AAH 320 g/ha, three weeks after application
Method in brief: as §2

windgrass [12] = experiment: Test Example 5: herbicidal effect by foliage application, plastic box (Table 20, symbol L); format: in vivo, windgrass (Apera spica-venti); conditions: foliage application, AAH 320 g/ha, three weeks after application
Method in brief: as §2

blackgrass [13] = experiment: Test Example 5: herbicidal effect by foliage application, plastic box (Table 20, symbol J); format: in vivo, blackgrass (Alopecurus myosuroides); conditions: foliage application, AAH 320 g/ha, three weeks after application
Method in brief: as §2

velvetleaf [14] = experiment: Test Example 5: herbicidal effect by foliage application, plastic box (Table 20, symbol M); format: in vivo, velvetleaf (Abutilon theophrasti); conditions: foliage application, AAH 320 g/ha, three weeks after application
Method in brief: as §2

blackgrass [15] = experiment: Test Example 4: herbicidal effect by soil treatment (Table 19, symbol J); format: in vivo, blackgrass (Alopecurus myosuroides); conditions: amount of applied herbicide 320 g/ha
Method in brief: as §1

lambsquarters [16] = experiment: Test Example 5: herbicidal effect by foliage application, plastic box (Table 20, symbol O); format: in vivo, lambsquarters (Chenopodium album); conditions: foliage application, AAH 320 g/ha, three weeks after application
Method in brief: as §2

redroot pigweed [17] = experiment: Test Example 4: herbicidal effect by soil treatment (Table 19, symbol N); format: in vivo, redroot pigweed (Amaranthus retroflexus); conditions: amount of applied herbicide 320 g/ha
Method in brief: as §1

barnyard grass [18] = experiment: Test Example 4: herbicidal effect by soil treatment (Table 19, symbol H); format: in vivo, barnyard grass (Echinochloa crus-galli); conditions: amount of applied herbicide 320 g/ha
Method in brief: as §1

chickweed [19] = experiment: Test Example 4: herbicidal effect by soil treatment (Table 19, symbol P); format: in vivo, common chickweed (Stellaria media); conditions: amount of applied herbicide 320 g/ha
Method in brief: as §1

Chinese sprangletop = experiment: Test Example 3: herbicidal effect by foliage application, Wagner pot (Table 18, symbol D); format: in vivo, chinese sprangletop (Leptochloa chinensis); conditions: 320 g/ha
Method in brief: as §3

barnyard grass [20] = experiment: Test Example 5: herbicidal effect by foliage application, plastic box (Table 20, symbol H); format: in vivo, barnyard grass (Echinochloa crus-galli); conditions: foliage application, AAH 320 g/ha, three weeks after application
Method in brief: as §2

southern crabgrass [21] = experiment: Test Example 4: herbicidal effect by soil treatment (Table 19, symbol F); format: in vivo, southern crabgrass (Digitaria ciliaris); conditions: amount of applied herbicide 320 g/ha
Method in brief: as §1

barnyard grass [22] = experiment: Test Example 3: herbicidal effect by foliage application, Wagner pot (Table 18, symbol H); format: in vivo, barnyard grass (Echinochloa crus-galli); conditions: 320 g/ha
Method in brief: as §3

Italian ryegrass [23] = experiment: Test Example 5: herbicidal effect by foliage application, plastic box (Table 20, symbol K); format: in vivo, Italian ryegrass (Lolium multiflorum); conditions: foliage application, AAH 320 g/ha, three weeks after application
Method in brief: as §2

wild oat [24] = experiment: Test Example 4: herbicidal effect by soil treatment (Table 19, symbol I); format: in vivo, wild oat (Avena fatua); conditions: amount of applied herbicide 320 g/ha
Method in brief: as §1

persian speedwell [25] = experiment: Test Example 4: herbicidal effect by soil treatment (Table 19, symbol R); format: in vivo, Persian speedwell (Veronica persica); conditions: amount of applied herbicide 320 g/ha
Method in brief: as §1

Compound: CCCC(=O)Oc1c(C)nn(C)c(=O)c1-c1c(-n2cc(Cl)cn2)sc2ccccc12 [Compound No. 1-098, 1,3-dimethyl-6-oxo-5-(2-(4-chloro-1H-pyrazol-1-yl)benzo[b]thiophen-3-yl)-1,6-dihydropyridazin-4-yl=(n-butyrate)]
- herbicidal effect rating, L: windgrass (windgrass [1]): 0 (Herbicidal rate of 5% or less (almost no effect))
- herbicidal effect rating, Q: false cleavers (false cleavers): 0 (Herbicidal rate of 5% or less (almost no effect))
- R: persian speedwell, herbicidal effect (persian speedwell [2]): 3 (Herbicidal rate of 40% or more and less than 70%)
- herbicidal effect rating, O: lambsquarters (lambsquarters [3]): 4 (Herbicidal rate of 70% or more and less than 90%)
- G: green foxtail, herbicidal effect (green foxtail [4]): 2 (Herbicidal rate of 20% or more and less than 40%)
- I: wild oat, herbicidal effect (wild oat [5]): 0 (Herbicidal rate of 5% or less (almost no effect))
- N: redroot pigweed, herbicidal effect (redroot pigweed [6]): 5 (Herbicidal rate of 90% or more (almost completely withered))
- herbicidal effect on E (rice flat sedge), rating 0-5 (rice flat sedge): 4 (Herbicidal rate of 70% or more and less than 90%)
- herbicidal effect rating, G: green foxtail (green foxtail [7]): 0 (Herbicidal rate of 5% or less (almost no effect))
- herbicidal effect rating, K: Italian ryegrass (Italian ryegrass [8]): 0 (Herbicidal rate of 5% or less (almost no effect))
- herbicidal effect rating, M: velvetleaf (velvetleaf [9]): 3 (Herbicidal rate of 40% or more and less than 70%)
- P: chickweed, herbicidal effect (chickweed [10]): 5 (Herbicidal rate of 90% or more (almost completely withered))
- F: southern crabgrass, herbicidal effect (southern crabgrass [11]): 0 (Herbicidal rate of 5% or less (almost no effect))
- L: windgrass, herbicidal effect (windgrass [12]): 0 (Herbicidal rate of 5% or less (almost no effect))
- J: blackgrass, herbicidal effect (blackgrass [13]): 0 (Herbicidal rate of 5% or less (almost no effect))
- M: velvetleaf, herbicidal effect (velvetleaf [14]): 0 (Herbicidal rate of 5% or less (almost no effect))
- herbicidal effect rating, J: blackgrass (blackgrass [15]): 0 (Herbicidal rate of 5% or less (almost no effect))
- O: lambsquarters, herbicidal effect (lambsquarters [16]): 5 (Herbicidal rate of 90% or more (almost completely withered))
- herbicidal effect rating, N: redroot pigweed (redroot pigweed [17]): 0 (Herbicidal rate of 5% or less (almost no effect))
- herbicidal effect rating, H: barnyard grass (barnyard grass [18]): 0 (Herbicidal rate of 5% or less (almost no effect))
- herbicidal effect rating, P: chickweed (chickweed [19]): 3 (Herbicidal rate of 40% or more and less than 70%)
- herbicidal effect on D (Chinese sprangletop), rating 0-5 (Chinese sprangletop): 0 (Herbicidal rate of 5% or less (almost no effect))
- H: barnyard grass, herbicidal effect (barnyard grass [20]): 3 (Herbicidal rate of 40% or more and less than 70%)
- herbicidal effect rating, F: southern crabgrass (southern crabgrass [21]): 0 (Herbicidal rate of 5% or less (almost no effect))
- herbicidal effect on H (barnyard grass), rating 0-5 (barnyard grass [22]): 0 (Herbicidal rate of 5% or less (almost no effect))
- K: Italian ryegrass, herbicidal effect (Italian ryegrass [23]): 2 (Herbicidal rate of 20% or more and less than 40%)
- herbicidal effect rating, I: wild oat (wild oat [24]): 0 (Herbicidal rate of 5% or less (almost no effect))
- herbicidal effect rating, R: persian speedwell (persian speedwell [25]): 0 (Herbicidal rate of 5% or less (almost no effect))

— patent publication US20230085307A1, “PYRIDAZINONE COMPOUND AND HERBICIDE” (NISSAN CHEMICAL CORPORATION, priority 2019, published 2023)
